Test results published in PubChem BioAssay (NCI).
Several values for one entry are separate records, joined by “and”; a condition that tells them apart may be missing. Equal values may be shown once.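 Results reflect a 48-hour exposure of cells in 96-well plates to compound at five concentrations. Here, GI50 denotes the concentration required for 50% inhibition of growth. TGI marks complete inhibition of growth.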

Assays:
Test in all cases: growth of human tumour cells (NCI), 48 h
[1] = tested on: HL-60(TB) leukemia
[2] = tested on: HOP-62 NSCLC
[3] = tested on: LOX IMVI melanoma
[4] = tested on: SF-295 CNS
[5] = tested on: IGROV1 ovarian
[6] = tested on: PC-3 prostate
[7] = tested on: TK-10 renal
[8] = tested on: CCRF-CEM leukemia
[9] = tested on: SF-268 CNS
[10] = tested on: SW-620 colon
[11] = tested on: DU-145 prostate
[12] = tested on: CAKI-1 renal
[13] = tested on: T-47D breast
[14] = tested on: U251 CNS
[15] = tested on: EKVX NSCLC
[16] = tested on: NCI-H226 lung
[17] = tested on: NCI/ADR-RES ovarian
[18] = tested on: 786-0 renal
[19] = tested on: NCI-H23 lung
[20] = tested on: UACC-62 melanoma
[21] = tested on: UACC-257 melanoma
[22] = tested on: HCT-15 colon
[23] = tested on: MDA-MB-435
[24] = tested on: RPMI-8226 leukemia
[25] = tested on: COLO 205 colon
[26] = tested on: HS 578T breast
[27] = tested on: HCC-2998 colon
[28] = tested on: HCT-116 colon
[29] = tested on: HT29 colon

Structure (SMILES): C[C@@]1(C(=O)Nc2ccc(F)nc2)CCCN1c1nc(Nc2cc(C3CC3)[nH]n2)c2cccn2n1
- GI50 [1]: 9.05 nM
- TGI [1]: > 2060 nM
- GI50 [2]: 404 nM and 1710 nM
- TGI [2]: > 5170 nM and 15400 nM
- GI50 [3]: 346 nM and 1100 nM
- TGI [3]: > 2040 nM and 12200 nM
- GI50 [4]: 472 nM and 841 nM
- TGI [4]: 3200 nM and 6780 nM
- GI50 [5]: 514 nM and 1710 nM
- TGI [5]: > 3870 nM and 16500 nM
- GI50 [6]: 989 nM and 1410 nM
- TGI [6]: > 7620 nM and 23500 nM
- GI50 [7]: 1570 nM and 593 nM
- TGI [7]: > 10000 nM and 8380 nM
- GI50 [8]: 378 nM and 574 nM
- TGI [8]: > 100000 nM
- GI50 [9]: 631 nM and 2560 nM
- TGI [9]: > 2570 nM and 15600 nM
- GI50 [10]: 214 nM and 342 nM
- TGI [10]: > 10000 nM and 23400 nM
- GI50 [11]: 1030 nM and 2570 nM
- TGI [11]: > 4000 nM and 16400 nM
- GI50 [12]: 565 nM and 725 nM
- TGI [12]: > 2290 nM and 7000 nM
- GI50 [13]: 1200 nM and 7470 nM
- TGI [13]: > 3530 nM and 27200 nM
- GI50 [14]: 1740 nM and 4920 nM
- TGI [14]: > 7390 nM and 20600 nM
- GI50 [15]: 417 nM and 1210 nM
- TGI [15]: > 4230 nM and 17100 nM
- GI50 [16]: 248 nM and 651 nM
- TGI [16]: 1900 nM and 7910 nM
- GI50 [17]: 3990 nM and 4990 nM
- TGI [17]: > 10000 nM and 25900 nM
- GI50 [18]: 855 nM and 2780 nM
- TGI [18]: > 4290 nM and 17700 nM
- GI50 [19]: 391 nM and 794 nM
- TGI [19]: > 4930 nM and 19800 nM
- GI50 [20]: 388 nM and 2100 nM
- TGI [20]: > 2120 nM and 18700 nM
- GI50 [21]: 211 nM and 120 nM
- TGI [21]: > 4460 nM and 16500 nM
- GI50 [22]: 826 nM and 2120 nM
- TGI [22]: > 4910 nM and 36100 nM
- TGI [23]: > 5420 nM and 23600 nM
- GI50 [24]: 7860 nM
- TGI [24]: > 2890 nM and 42100 nM
- GI50 [25]: 9.29 nM and 50.1 nM
- TGI [25]: 236 nM and 321 nM
- GI50 [26]: 631 nM and 2560 nM
- TGI [26]: 3190 nM and 8610 nM
- GI50 [27]: 1060 nM and 6270 nM
- TGI [27]: > 4700 nM and 22700 nM
- GI50 [28]: 314 nM and 575 nM
- TGI [28]: > 2330 nM and 15900 nM
- GI50 [29]: 4.43 nM and 10.3 nM
